Read-outs that look alike come from different tables or passages of the source.
Key:
MV4;11 cells = assay: Cell viability assay (CellTiter-Glo) in MV4;11 cells, alone or with gilteritinib; assay type: cell-based; conditions: Homo sapiens, MV4;11 cells, three days, CellTiter-Glo, read-out: MV4
MOLM-13 cells = assay: Cell viability assay (CellTiter-Glo) in MOLM-13 cells, alone or with gilteritinib; assay type: cell-based; conditions: Homo sapiens, MOLM-13 cells, three days, CellTiter-Glo
[1] = MV4-11, 72 h, compound alone (without gilteritinib), 11 IC50
[2] = MV4-11, 72 h, with gilteritinib 10 nM, 11 IC50 gilteritinib
[3] = MOLM-13, 72 h, compound alone (without gilteritinib), read-out: MOLM-13 IC50
[4] = MOLM-13, 72 h, with gilteritinib 20 nM, read-out: MOLM-13 IC50 gilteritinib
[5] = MV4-11, 72 h, compound with gilteritinib 10 nM, 11 IC50 gilteritinib
[6] = MOLM-13, 72 h, compound with gilteritinib 20 nM, read-out: MOLM-13 IC50 gilteritinib
[7] = 72 h, compound alone (without gilteritinib), 11 IC50
[8] = 72 h, compound with gilteritinib 10 nM, 11 IC50 gilteritinib
[9] = 72 h, compound alone (without gilteritinib), read-out: MOLM-13 IC50
[10] = 72 h, compound with gilteritinib 20 nM, read-out: MOLM-13 IC50 gilteritinib

| IC50 (MV4;11 cells; [1]) | IC50 (MV4;11 cells; [2]) | IC50 (MOLM-13 cells; [3]) | IC50 (MOLM-13 cells; [4]) | IC50 (MV4;11 cells; [5]) | IC50 (MOLM-13 cells; [6]) | Structure (SMILES) | other results |
| --- | --- | --- | --- | --- | --- | --- | --- |
| < 10 nM | < 10 nM | < 10 nM | < 10 nM |  |  | O=C1CCC(N2C(=O)c3ccc(NC[C@H]4C[C@H](n5cc(-c6nccc7cnccc67)c(C6CC6)n5)C4)cc3C2=O)C(=O)N1 (stereo partly drawn) [GS-280, 5-(((trans-3-(3-Cyclopropyl-4-(2,6-naphthyridin-1-yl)-1H-pyrazol-1-yl)cyclobutyl)methyl)amino)-2-(2,6-dioxopiperidin-3-yl)isoindoline-1,3-dione] |  |
| < 10 nM |  | < 10 nM |  | < 10 nM | < 10 nM | O=C1CCC(N2C(=O)c3ccc(NC[C@H]4C[C@H](n5cc(-c6cnc7c(N8CC(O)C8)cccc7n6)c(C6CC6)n5)C4)cc3C2=O)C(=O)N1 (some centres unmarked) [GS-610] |  |
| 10 to 100 nM | < 10 nM | 100 to 1000 nM | 10 to 100 nM |  |  | O=C1CCC(N2C(=O)c3ccc(NC[C@H]4C[C@H](n5cc(-c6ccccc6F)c(C6CC6)n5)C4)cc3C2=O)C(=O)N1 (stereo partly drawn) [GS-289, 5-(((trans-3-(3-Cyclopropyl-4-(2-fluorophenyl)-1H-pyrazol-1-yl)cyclobutyl)methyl)amino)-2-(2,6-dioxopiperidin-3-yl)isoindoline-1,3-dione] |  |
| > 1000 nM |  | > 1000 nM |  | > 1000 nM | > 1000 nM | CN1CCCC(c2cn([C@H]3C[C@H](CNc4ccc5c(c4)C(=O)N(C4CCC(=O)NC4=O)C5=O)C3)nc2C2CC2)C1 (stereo partly drawn) [GS-472, 5-(((trans-3-(3-cyclopropyl-4-(1-methylpiperidin-3-yl)-1H-pyrazol-1-yl)cyclobutyl)methyl)amino)-2-(2,6-dioxopiperidin-3-yl)isoindoline-1,3-dione] |  |
| < 10 nM |  | 10 to 100 nM |  | < 10 nM | < 10 nM | Cn1ncc2cnc(-c3cn([C@H]4C[C@H](CNc5ccc6c(c5)C(=O)N(C5CCC(=O)NC5=O)C6=O)C4)nc3C3CC3)cc21 (stereo partly drawn) [GS-613, 5-(((trans-3-(3-Cyclopropyl-4-(1-methyl-1H-pyrazolo[4,3-c]pyridin-6-yl)-1H-pyrazol-1-yl)cyclobutyl)methyl)amino)-2-(2,6-dioxopiperidin-3-yl)isoindoline-1,3-dione] |  |
| 10 to 100 nM |  | 100 to 1000 nM |  | 10 to 100 nM | 10 to 100 nM | O=C1CCC(N2C(=O)c3ccc(NC[C@H]4C[C@H](n5cc(-c6cccc(Cl)c6)c(C6CC6)n5)C4)cc3C2=O)C(=O)N1 (stereo partly drawn) [GS-457, 5-(((trans-3-(4-(3-chlorophenyl)-3-cyclopropyl-1H-pyrazol-1-yl)cyclobutyl)methyl)amino)-2-(2,6-dioxopiperidin-3-yl)isoindoline-1,3-dione] |  |
| 100 to 1000 nM |  | 100 to 1000 nM |  | 10 to 100 nM | 10 to 100 nM | O=C1CCC(N2C(=O)c3ccc(NC[C@H]4C[C@H](n5cc(-c6ccccn6)c(C6CC6)n5)C4)cc3C2=O)C(=O)N1 (stereo partly drawn) [GS-595, 5-(((trans-3-(3-Cyclopropyl-4-(pyridin-2-yl)-1H-pyrazol-1-yl)cyclobutyl)methyl)amino)-2-(2,6-dioxopiperidin-3-yl)isoindoline-1,3-dione] |  |

The remaining lines, values behind:

| Structure (SMILES) | IC50 (MV4;11 cells; [1]) | IC50 (MV4;11 cells; [2]) | IC50 (MOLM-13 cells; [3]) | IC50 (MOLM-13 cells; [4]) | IC50 (MV4;11 cells; [5]) | IC50 (MOLM-13 cells; [6]) | other results |
| --- | --- | --- | --- | --- | --- | --- | --- |
| O=C(CN1CCC(n2cc(-c3ccc4ccccc4n3)cn2)CC1)NCCCNc1ccc2c(c1)C(=O)N(C1CCC(=O)NC1=O)C2=O (centres unmarked) [GS-317, N-(3-((2-(2,6-Dioxopiperidin-3-yl)-1,3-dioxoisoindolin-5-yl)amino)propyl)-2-(4-(4-(quinolin-2-yl)-1H-pyrazol-1-yl)piperidin-1-yl)acetamide] | > 1000 nM | > 1000 nM | > 1000 nM | 100 to 1000 nM |  |  |  |
| CN1CCN(c2ccc3ncc(-c4cnn([C@H]5C[C@H](CCCNc6ccc7c(c6)C(=O)N(C6CCC(=O)NC6=O)C7=O)C5)c4)nc3c2)CC12CC2 (stereo partly drawn) [GS-414, 2-(2,6-dioxopiperidin-3-yl)-5-((3-(trans-3-(4-(7-(4-methyl-4,7-diazaspiro[2.5]octan-7-yl)quinoxalin-2-yl)-1H-pyrazol-1-yl)cyclobutyl)propyl)amino)isoindoline-1,3-dione] | 100 to 1000 nM |  | 100 to 1000 nM |  | 10 to 100 nM | 10 to 100 nM |  |
| O=C1CCC(N2C(=O)c3ccc(NCCCC4(C(=O)N5CCC(n6cc(-c7cnc8ccccc8n7)cn6)CC5)CC4)cc3C2=O)C(=O)N1 (centres unmarked) [GS-141, 2-(2,6-Dioxopiperidin-3-yl)-5-((3-(1-(4-(4-(quinoxalin-2-yl)-1H-pyrazol-1-yl)piperidine-1-carbonyl)cyclopropyl)propyl)amino)isondoline-1,3-dione] | > 1000 nM | > 1000 nM | > 1000 nM | > 1000 nM |  |  |  |
| CC(C)c1nc2ccccc2nc1-c1cnn(CCCCCCNc2ccc3c(c2)C(=O)N(C2CCC(=O)NC2=O)C3=O)c1 (centres unmarked) [GS-523, 2-(2,6-Dioxopiperidin-3-yl)-5-((6-(4-(3-isopropylquinoxalin-2-yl)-1H-pyrazol-1-yl)hexyl)amino)isoindoline-1,3-dione] |  |  |  |  |  |  | IC50 (MV4;11 cells; [7]): > 1000 nM; IC50 (MV4;11 cells; [8]): 100 to 1000 nM; IC50 (MOLM-13 cells; [9]): > 1000 nM; IC50 (MOLM-13 cells; [10]): 100 to 1000 nM |
| Cc1nn(CCCCCCNc2ccc3c(c2)C(=O)N(C2CCC(=O)NC2=O)C3=O)c(C)c1-c1cnc2ccccc2n1 (centres unmarked) [GS-510, 5-((6-(3,5-Dimethyl-4-(quinoxalin-2-yl)-1H-pyrazol-1-yl)hexyl)amino)-2-(2,6-dioxopiperidin-3-yl)isoindoline-1,3-dione] | 100 to 1000 nM |  | > 1000 nM |  | < 10 nM | < 10 nM |  |
| O=C1CCC(N2C(=O)c3ccc(NCCCN4CC(n5cc(-c6cnc7ccccc7n6)cn5)C4)cc3C2=O)C(=O)N1 (centres unmarked) [GS-371, 2-(2,6-Dioxopiperidin-3-yl)-5-((3-(3-(4-(quinoxalin-2-yl)-1H-pyrazol-1-yl)azetidin-1-yl)propyl)amino)isoindoline-1,3-dione] | > 1000 nM | > 1000 nM | 100 to 1000 nM | 100 to 1000 nM |  |  |  |
| CN1CCC(c2cccc3ncc(-c4cnn(CCCCCCNc5ccc6c(c5)C(=O)N(C5CCC(=O)NC5=O)C6=O)c4)nc23)CC1 (centres unmarked) [GS-388, 2-(2,6-Dioxopiperidin-3-yl)-5-((6-(4-(8-(1-methylpiperidin-4-yl)quinoxalin-2-yl)-1H-pyrazol-1-yl)hexyl)amino)isoindoline-1,3-dione] | > 1000 nM | > 1000 nM | > 1000 nM | > 1000 nM |  |  |  |
| O=C1CCC(N2C(=O)c3ccc(CNC4CC(n5cc(-c6cnc7ccccc7n6)c(C6CC6)n5)C4)cc3C2=O)C(=O)N1 (centres unmarked) [GS-461, 5-(((3-(3-cyclopropyl-4-(quinoxalin-2-yl)-1H-pyrazol-1-yl)cyclobutyl)amino)methyl)-2-(2,6-dioxopiperidin-3-yl)isoindoline-1,3-dione] | > 1000 nM |  | > 1000 nM |  | > 1000 nM | > 1000 nM |  |
| O=C1CCC(N2Cc3ccc(CCCCCCC(=O)N4CCC(n5cc(-c6ccc7ccccc7n6)cn5)CC4)cc3C2=O)C(=O)N1 (centres unmarked) [GS-098, 3-(1-Oxo-6-(7-oxo-7-(4-(4-(quinolin-2-yl)-1H-pyrazol-1-yl)piperidin-1-yl)heptyl)isoindolin-2-yl)piperidine-2,6-dione] | 10 to 100 nM | 10 to 100 nM | 100 to 1000 nM | < 10 nM |  |  |  |
| O=C1CCC(N2C(=O)c3ccc(NCCC[C@H]4C[C@H](n5cc(-c6cnc7ccc(N8CCN(CC(F)(F)F)CC8)cc7n6)cn5)C4)cc3C2=O)C(=O)N1 (stereo partly drawn) [GS-587, 2-(2,6-Dioxopiperidin-3-yl)-5-((3-(trans-3-(4-(7-(4-(2,2,2-trifluoroethyl)piperazin-1-yl)quinoxalin-2-yl)-1H-pyrazol-1-yl)cyclobutyl)propyl)amino)isoindoline-1,3-dione] | 10 to 100 nM |  | 100 to 1000 nM |  | < 10 nM | < 10 nM |  |
| O=C1CCC(N2C(=O)c3ccc(NCCCc4cc(F)cc(N5CCC(c6ccccc6)CC5)c4)cc3C2=O)C(=O)N1 (centres unmarked) [GS-505, 2-(2,6-Dioxopiperidin-3-yl)-5-((3-(3-fluoro-5-(4-phenylpiperidin-1-yl)phenyl)propyl)amino)isoindoline-1,3-dione] |  |  |  |  |  |  | IC50 (MV4;11 cells; [7]): 10 to 100 nM; IC50 (MV4;11 cells; [8]): 10 to 100 nM; IC50 (MOLM-13 cells; [9]): 10 to 100 nM; IC50 (MOLM-13 cells; [10]): < 10 nM |
| O=C1CCC(N2C(=O)c3ccc(NCCNc4cccc(N5CCC(n6cc(-c7cnc8cccc(Br)c8n7)cn6)CC5)c4)cc3C2=O)C(=O)N1 (centres unmarked) [GS-362, 5-((2-((3-(4-(4-(8-Bromoquinoxalin-2-yl)-1H-pyrazol-1-yl)piperidin-1-yl)phenyl)amino)ethyl)amino)-2-(2,6-dioxopiperidin-3-yl)isoindoline-1,3-dione] |  |  |  |  |  |  | IC50 (MV4;11 cells; [7]): < 10 nM; IC50 (MV4;11 cells; 72 h, with gilteritinib 10 nM, 11 IC50 gilteritinib): < 10 nM; IC50 (MOLM-13 cells; [9]): < 10 nM; IC50 (MOLM-13 cells; 72 h, with gilteritinib 20 nM, read-out: MOLM-13 IC50 gilteritinib): < 10 nM |
| O=C1CCC(N2C(=O)c3ccc(NCCC[C@H]4C[C@H](n5cc(-c6cnc7ccc(CN8CCNCC8)cc7n6)c(C6CC6)n5)C4)cc3C2=O)C(=O)N1 (stereo partly drawn) [GS-228, 5-((3-(trans-3-(3-Cyclopropyl-4-(7-(piperazin-1-ylmethyl)quinoxalin-2-yl)-1H-pyrazol-1-yl)cyclobutyl)propyl)amino)-2-(2,6-dioxopiperidin-3-yl)isoindoline-1,3-dione] | < 10 nM | < 10 nM | < 10 nM | < 10 nM |  |  |  |

— patent publication US20240050428A1 (Cullgen (Shanghai), Inc., priority 2020, published 2024)
